Measured values reported in paper PMC8226722, “Comparison of Solution Chemical Properties and Biological Activity of Ruthenium Complexes of Selected β-Diketone, 8-Hydroxyquinoline and Pyrithione Ligands” (Pharmaceuticals, 2021).

Experiments:
[1] = Shake-flask n-octanol/water distribution coefficient; format: physicochemical; conditions: 25.0 °C, 20 mM phosphate buffer
Description: (§1) Chloride ion concentrations of 4, 24 and 100 mM were chosen according to the chloride content of the nucleus, cytosol and blood serum, respectively. […] Then parallel artificial membrane permeability assay (PAMPA) was used to estimate the ability of the complexes to penetrate membranes by passive diffusion and the effective passive permeability coefficients (Peff) obtained for complexes 1–3 are shown in Table 4 (in case of 4, there are no data due to formation of precipitate).
(§2) Distribution coefficients at physiological pH (D7.4) of the complexes were determined by the traditional shake-flask method in n-octanol/buffered aqueous solution at pH 7.40 (20 mM phosphate buffer) at various chloride concentrations and at 25.0 ± 0.2 °C using UV-vis detection as described in our former works [37, 38, 42]. PAMPA was applied for the complexes with a Gentest pre-coated PAMPA Plate System (Corning, Corning, NY, USA) [56]. Briefly, a 96-well filter plate was used as the permeation acceptor and the 96-well bottom plate was used as the permeation donor. For simplicity, PBS was used both as donor and acceptor buffer throughout this study. […] Peff values were calculated according to the equation reported by Yu et al. [57].

[2] = tested on: hormone dependent MCF-7 breast cancer cell line; parameters: method as in PMID 27357845, PMID 31461189, PMID 24189185; conditions: read-out: half maximal effective concentration, MCF-7; cited from earlier work
[3] = Parallel artificial membrane permeability assay (PAMPA); conditions: for recovery: pH 7.4; for Peff, effective passive permeability: pH 7.4, 100 mM chloride, 5 h
Description: as §1, §2

[4] = tested on: array of cancer cell lines including cisplatin- and adriamycin-resistant strains; parameters: method as in PMID 34065335; conditions: cited from earlier work
Chlamydia trachomatis = test: Antichlamydia activity in HeLa cells, direct qPCR; format: cell-based; conditions: MOI 0.2, 48 h post infection
Description: Then the Hela cells were infected with C. trachomatis at multiplicity of infection (MOI) 0.2, and were treated with different concentrations of the complexes for 24 h. After 48 h post infection, the cells were lysed and the chlamydial growth reducing effect of the complexes was evaluated by comparing the chlamydial genom concentration to that seen on untreated/infected HeLa cells. The C. trachomatis DNA concentration was measured by direct quantitative PCR (qPCR). The average cycle threshold (Ct) numbers were calculated and –Ct values are shown at the various complex concentrations in Figure 2 for 7 and 8 (and Figure S2 for the rest of the complexes). The maximum C. trachomatis growth corresponded to a DNA concentration of Ct ~19 value as detected by direct qPCR, as well.
The Chlamydia trachomatis strain was propagated and partially purified as described previously with some modifications. The infected cells were stained with monoclonal antichlamydia lipopolysaccharide (LPS) antibody (AbD Serotec, Oxford, UK) and fluorescein isothiocyanate-labeled anti-mouse IgG (Sigma-Aldrich) and the number of cells containing chlamydial inclusions was counted under a UV microscope, and the titer was expressed as the number of inclusion forming units (IFU)/mL. […]

ovarian carcinoma CH1 = tested on: ovarian carcinoma CH1; parameters: method as in PMID 25856666; conditions: cited from earlier work
osteosarcoma MG63 cells = tested on: osteosarcoma MG63 cells; parameters: method as in PMID 25856666; conditions: cited from earlier work
Vero cells = test: MTT cytotoxicity in Vero cells (maximum non-toxic concentration); conditions: 24 h, up to 100 µM
Description: The antiviral effect of complexes against HSV-2 was screened using Vero cells (originally isolated from kidney epithelial cells) to host the growing viruses.
(§3) HeLa 229 cells (ATCC) and Vero cells (ATCC) were cultured in minimal essential medium (MEM) (Sigma, Steinheim, Germany) with Earle salts supplemented with 10% heat-inactivated fetal bovine serum (FBS) (Gibco; ThermoFisher Scientific, Inc., Waltham, MA, USA), 2 mM L-glutamine, 1× non-essential amino acids, 8 mM HEPES, 25 μg/mL gentamycin and 1 µg/mL fungisone. The cells were incubated for 1 h at room temperature to reduce the edge effect and then overnight at 37 °C, 5% CO2 to obtain a 90% confluent cell layer.
(§4) The density of cells was 4 × 10^4 cells/well in 100 µL of MEM with Earle salts supplemented with 10% heat-inactivated FBS, 2 mM L-glutamine, 1× MEM vitamins, 1× non-essential amino acids, 0.005% Na-pyruvate, 25 µg/mL gentamycin, 1 µg/mL fungisone). The plates were incubated for 1 h room temperature and then overnight at 37 °C, 5% CO2. Next day, when the cells reached a ~90% confluency, the medium was supplemented with the serial 2-fold dilutions of the complexes in three parallel wells for each concentration. […] After 24 h incubation for Vero cells and 48 h incubation for HeLa cells, 10 µL of the MTT (Sigma, Steinheim, Germany) labelling reagent (final concentration 0.5 mg/mL) was added to each well and the plate was incubated for 4 h at 37 °C, 5% CO2. After the incubation, 100 µL of the solubilisation solution (10% SDS in 1 M HCl) was added into each well, and the plate was allowed to stand overnight in the incubator at 37 °C, 5% CO2.

[5] = tested on: HeLa 229 human cervix carcinoma cells; test: MTT cytotoxicity in HeLa 229 cells (maximum non-toxic concentration); conditions: 48 h
Description: as §3, §4

[6] = tested on: Human herpes simplex virus-2 (HSV-2); test: Antiviral activity in Vero cells, direct qPCR; format: cell-based
Description: Then Vero cells were infected with HSV-2 (at MOI 0.2) and were treated with the complexes for 24 h. After 24 h post infection, the cells were lysed and the virus yield reducing effect of the compounds was evaluated by comparing the yield to that seen on untreated Vero cells. The HSV-2 DNA concentration was measured by direct qPCR.
Human herpes simplex virus-2 (HSV-2) strain was (gift from Dr. Ilona Mucsi, University of Szeged, Szeged, Hungary) grown in Vero (ATCC) cells and the infectivity was measured by using the plaque titration method. The virus titer was expressed in plaque forming units (PFU).
The plates were incubated for at 37 °C, 5% CO2 for 24 h. The plates were evaluated with quantitative PCR.
At the end of the infection (24 h for HSV-2, 48 h for C. trachomatis) the supernatants of the cells were removed and the cells were washed with PBS twice, and finally 100 μL in sucrose-phosphate-glutamic acid buffer (SPG) was measured into the wells, and the cells were subjected to two freeze-thaw cycles. The mixed cell lysates were used as a template in the qPCR as described previously. Briefly, qPCR was performed with the 5× HOT FIREPol®EvaGreen®qPCR Supermix (Solis Solis BioDyne, Tartu, Estonia) and C. trachomatis pykF gene specific primer pair in a Bio-Rad CFX96 real time PCR system. The pykF primer sequences were the following: 5′-[…]-3′, 5′-[…]-3′. For each sample the cycle threshold (Ct) number corresponding to the cycle where the amplification curve crossed the base line was determined. For the quantitative measurement of HSV-2 growth a similar qPCR method was used as was applied for C. trachomatis. The HSV-2 gD2 gene specific primer pair (gD2-F: 5′-[…]-3′, gD2-R 5′-[…]-3′ was used with a 69 °C annealing-extension temperature.

SMILES	logD7.4 ([1]; pH 7.4, c(KCl) 4 mM)	logD7.4 ([1]; pH 7.4, c(KCl) 24 mM)	logD7.4 ([1]; pH 7.4, c(KCl) 100 mM)	recovery [3] [%]	Peff, effective passive permeability [3] [×10⁻⁶ cm/s]	chlamydial growth difference between treated and untreated cells (Chlamydia trachomatis)	IC50 (ovarian carcinoma CH1) [µM]	IC50 (osteosarcoma MG63 cells) [µM]	toxicity in Vero cells (Vero cells)	maximum non-toxic concentration, HeLa 229 [5] [µM]	also measured
Cc1ccc(C(C)C)cc1.[Cl-].[O-]n1ccccc1=S.[Ru+2] [complex 1]	−0.43 ± 0.09	−0.10 ± 0.05	+0.31 ± 0.03	1.3	1.13	–	–	–	–	–	EC50 [2]: 3.8 µM
C1N2CN3CN1CP(C2)C3.Cc1ccc(C(C)C)cc1.F[P-](F)(F)(F)(F)F.[O-]n1ccc2ccccc2c1=S.[Ru+2] [complex 4]	–	–	–	–	–	–	–	–	–	–	concentration up to which inactive, cancer cell line panel [4]: > 50 µM
C1N2CN3CN1CP(C2)C3.Cc1ccc(C(C)C)cc1.F[P-](F)(F)(F)(F)F.O=C(C=C([O-])C(F)(F)F)c1ccc(Cl)cc1.[Ru+2] [complex 8]	–	–	–	–	–	ca. 155 fold	8	41	did not produce significant toxicity at any of the concentrations	50	–
C1N2CN3CN1CP(C2)C3.Cc1ccc(C(C)C)cc1.F[P-](F)(F)(F)(F)F.[O-]n1ccccc1=S.[Ru+2] [complex 2]	–	–	–	15	2.88	–	–	–	–	–	–
Cc1ccc(C(C)C)cc1.[Cl-].[O-]n1ccc2ccccc2c1=S.[Ru+2] [complex 3]	+0.92 ± 0.06	+1.22 ± 0.04	+1.37 ± 0.06	8.1	3.35	–	–	–	–	–	–
Cc1ccc(C(C)C)cc1.O=C(C=C([O-])C(F)(F)F)c1ccc(Cl)cc1.[Cl-].[Ru+2] [complex 7]	–	–	–	–	–	ca. 101 fold	17	64	did not produce significant toxicity at any of the concentrations	50	HSV-2 growth difference ([6]; HSV-2 MOI 0.2, 24 h): ca. 237 fold; qPCR cycles difference (dCT) ([6]; HSV-2 MOI 0.2, 24 h): ~ 7.89 qPCR cycles; IC50 ([6]; MOI 0.2, 24 h, qPCR, read-out: IC50 HSV-2 growth): ~25 µM; IC90 ([6]; MOI 0.2, 24 h, qPCR, read-out: IC90 HSV-2 growth): 50 to 100 µM
